Laboratory results as given in PubChem BioAssay (NCI).
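The compound was tested at five concentrations on cells cultured in 96-well plates, with a 48-hour exposure period. TGI marks complete inhibition of growth.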

Legend:
Assay in all cases: NCI-60 cell line screen, 48 h
[1] = tested on: SK-MEL-2 melanoma
[2] = tested on: HT29 colon
[3] = tested on: MDA-N
[4] = tested on: IGROV1 ovarian
[5] = tested on: NCI/ADR-RES ovarian
[6] = tested on: CCRF-CEM leukemia
[7] = tested on: ACHN renal
[8] = tested on: LOX IMVI melanoma
[9] = tested on: NCI-H23 lung
[10] = tested on: SW-620 colon
[11] = tested on: SNB-19 CNS
[12] = tested on: SR leukemia
[13] = tested on: HCT-15 colon
[14] = tested on: NCI-H460 lung
[15] = tested on: SF-268 CNS
[16] = tested on: OVCAR-4 ovarian
[17] = tested on: NCI-H522 lung
[18] = tested on: RXF 393 renal
[19] = tested on: DU-145 prostate
[20] = tested on: UO-31 renal
[21] = tested on: SN12C renal
[22] = tested on: U251 CNS
[23] = tested on: A549 NSCLC
[24] = tested on: OVCAR-3 ovarian
[25] = tested on: PC-3 prostate
[26] = tested on: COLO 205 colon
[27] = tested on: EKVX NSCLC
[28] = tested on: T-47D breast
[29] = tested on: HL-60(TB) leukemia
[30] = tested on: UACC-257 melanoma
[31] = tested on: A498 renal
[32] = tested on: K-562 leukemia
[33] = tested on: SK-MEL-28 melanoma
[34] = tested on: 786-0 renal
[35] = tested on: HOP-92 NSCLC
[36] = tested on: HS 578T breast
[37] = tested on: KM12 colon
[38] = tested on: HCT-116 colon
[39] = tested on: CAKI-1 renal
[40] = tested on: TK-10 renal
[41] = tested on: MCF7 breast
[42] = tested on: HOP-62 NSCLC
[43] = tested on: SNB-75 CNS
[44] = tested on: OVCAR-5 ovarian
[45] = tested on: MALME-3M melanoma
[46] = tested on: SK-MEL-5 melanoma
[47] = tested on: SF-539 CNS
[48] = tested on: MDA-MB-435
[49] = tested on: SF-295 CNS
[50] = tested on: SK-OV-3 ovarian
[51] = tested on: M14 melanoma
[52] = tested on: UACC-62 melanoma
[53] = tested on: NCI-H226 lung
[54] = tested on: RPMI-8226 leukemia
[55] = tested on: MDA-MB-231 breast
[56] = tested on: OVCAR-8 ovarian
[57] = tested on: BT-549 breast
[58] = tested on: MOLT-4 leukemia
[59] = tested on: HCC-2998 colon

## CSCCC(C(=O)O)N(C)C (stereo unspecified)
[1]
  TGI: > 100 µM
[2]
  TGI: > 100 µM
[3]
  TGI: > 100 µM
[4]
  TGI: > 100 µM
[5]
  TGI: > 100 µM
[6]
  TGI: > 100 µM
[7]
  TGI: > 100 µM
[8]
  TGI: > 100 µM
[9]
  TGI: > 100 µM
[10]
  TGI: > 100 µM
[11]
  TGI: > 100 µM
[12]
  TGI: > 100 µM
[13]
  TGI: > 100 µM
[14]
  TGI: > 100 µM
[15]
  TGI: > 100 µM
[16]
  TGI: > 100 µM
[17]
  TGI: > 100 µM
[18]
  TGI: > 100 µM
[19]
  TGI: > 100 µM
[20]
  TGI: > 100 µM
[21]
  TGI: > 100 µM
[22]
  TGI: > 100 µM
[23]
  TGI: > 100 µM
[24]
  TGI: > 100 µM
[25]
  TGI: > 100 µM
[26]
  TGI: > 100 µM
[27]
  TGI: > 100 µM
[28]
  TGI: > 100 µM
[29]
  TGI: > 100 µM
[30]
  TGI: > 100 µM
[31]
  TGI: > 100 µM
[32]
  TGI: > 100 µM
[33]
  TGI: > 100 µM
[34]
  TGI: > 100 µM
[35]
  TGI: > 100 µM
[36]
  TGI: > 100 µM
[37]
  TGI: > 100 µM
[38]
  TGI: > 100 µM
[39]
  TGI: > 100 µM
[40]
  TGI: > 100 µM
[41]
  TGI: > 100 µM
[42]
  TGI: > 100 µM
[43]
  TGI: > 100 µM
[44]
  TGI: > 100 µM
[45]
  TGI: > 100 µM
[46]
  TGI: > 100 µM
[47]
  TGI: > 100 µM
[48]
  TGI: > 100 µM
[49]
  TGI: > 100 µM
[50]
  TGI: > 100 µM
[51]
  TGI: > 100 µM
[52]
  TGI: > 100 µM
[53]
  TGI: > 100 µM
[54]
  TGI: > 100 µM
[55]
  TGI: > 100 µM
[56]
  TGI: > 100 µM
[57]
  TGI: > 100 µM

## O=C1c2ccccc2C(=O)c2c(NC3CCCCC3)ccc(Nc3ccc(S(=O)(=O)O)cc3)c21
[1]
  TGI: 99.8 µM
[2]
  TGI: > 100 µM
[3]
  TGI: > 100 µM
[4]
  TGI: > 100 µM
[5]
  TGI: > 100 µM
[6]
  TGI: > 100 µM
[7]
  TGI: > 100 µM
[8]
  TGI: > 100 µM
[9]
  TGI: > 100 µM
[10]
  TGI: > 100 µM
[11]
  TGI: > 100 µM
[12]
  TGI: > 100 µM
[13]
  TGI: > 100 µM
[14]
  TGI: > 100 µM
[15]
  TGI: > 100 µM
[16]
  TGI: > 100 µM
[17]
  TGI: 52.5 µM
[18]
  TGI: > 100 µM
[19]
  TGI: > 100 µM
[20]
  TGI: > 100 µM
[21]
  TGI: 60.5 µM
[22]
  TGI: 88.7 µM
[23]
  TGI: > 100 µM
[24]
  TGI: > 100 µM
[25]
  TGI: 83 µM
[26]
  TGI: 53.1 µM
[27]
  TGI: 64.4 µM
[28]
  TGI: > 100 µM
[29]
  TGI: 99.8 µM
[30]
  TGI: 63.7 µM
[31]
  TGI: > 100 µM
[32]
  TGI: > 100 µM
[58]
  TGI: > 100 µM
[33]
  TGI: > 100 µM
[34]
  TGI: > 100 µM
[35]
  TGI: > 100 µM
[36]
  TGI: > 100 µM
[37]
  TGI: > 100 µM
[38]
  TGI: > 100 µM
[39]
  TGI: > 100 µM
[40]
  TGI: > 100 µM
[41]
  TGI: 86.8 µM
[42]
  TGI: > 100 µM
[43]
  TGI: > 100 µM
[44]
  TGI: > 100 µM
[45]
  TGI: 58.7 µM
[46]
  TGI: > 100 µM
[47]
  TGI: > 100 µM
[48]
  TGI: > 100 µM
[49]
  TGI: > 100 µM
[50]
  TGI: > 100 µM
[51]
  TGI: > 100 µM
[52]
  TGI: > 100 µM
[53]
  TGI: > 100 µM
[54]
  TGI: > 100 µM
[55]
  TGI: 69.9 µM
[59]
  TGI: 71.1 µM
[56]
  TGI: > 100 µM
[57]
  TGI: > 100 µM
